Source: ChEMBL document CHEMBL1908284, “Rational use of in vitro P-glycoprotein assays in drug discovery” (J Pharmacol Exp Ther, 2001)

Legend:
[1] = target: T1, ATP-dependent translocase ABCB1 (Homo sapiens, UniProt P08183); conditions: spodoptera frugiperda, sf9, 20 µM;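 further: Compound-stimulated ATPase activity measured in membrane preparations of MDR1-expressing Sf9 cells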
[2] = target: T2, ATP-dependent translocase ABCB1 (MDR1) (Homo sapiens, UniProt P08183); assay: in vitro; conditions: dog
T2 sequence (P08183 whole entry): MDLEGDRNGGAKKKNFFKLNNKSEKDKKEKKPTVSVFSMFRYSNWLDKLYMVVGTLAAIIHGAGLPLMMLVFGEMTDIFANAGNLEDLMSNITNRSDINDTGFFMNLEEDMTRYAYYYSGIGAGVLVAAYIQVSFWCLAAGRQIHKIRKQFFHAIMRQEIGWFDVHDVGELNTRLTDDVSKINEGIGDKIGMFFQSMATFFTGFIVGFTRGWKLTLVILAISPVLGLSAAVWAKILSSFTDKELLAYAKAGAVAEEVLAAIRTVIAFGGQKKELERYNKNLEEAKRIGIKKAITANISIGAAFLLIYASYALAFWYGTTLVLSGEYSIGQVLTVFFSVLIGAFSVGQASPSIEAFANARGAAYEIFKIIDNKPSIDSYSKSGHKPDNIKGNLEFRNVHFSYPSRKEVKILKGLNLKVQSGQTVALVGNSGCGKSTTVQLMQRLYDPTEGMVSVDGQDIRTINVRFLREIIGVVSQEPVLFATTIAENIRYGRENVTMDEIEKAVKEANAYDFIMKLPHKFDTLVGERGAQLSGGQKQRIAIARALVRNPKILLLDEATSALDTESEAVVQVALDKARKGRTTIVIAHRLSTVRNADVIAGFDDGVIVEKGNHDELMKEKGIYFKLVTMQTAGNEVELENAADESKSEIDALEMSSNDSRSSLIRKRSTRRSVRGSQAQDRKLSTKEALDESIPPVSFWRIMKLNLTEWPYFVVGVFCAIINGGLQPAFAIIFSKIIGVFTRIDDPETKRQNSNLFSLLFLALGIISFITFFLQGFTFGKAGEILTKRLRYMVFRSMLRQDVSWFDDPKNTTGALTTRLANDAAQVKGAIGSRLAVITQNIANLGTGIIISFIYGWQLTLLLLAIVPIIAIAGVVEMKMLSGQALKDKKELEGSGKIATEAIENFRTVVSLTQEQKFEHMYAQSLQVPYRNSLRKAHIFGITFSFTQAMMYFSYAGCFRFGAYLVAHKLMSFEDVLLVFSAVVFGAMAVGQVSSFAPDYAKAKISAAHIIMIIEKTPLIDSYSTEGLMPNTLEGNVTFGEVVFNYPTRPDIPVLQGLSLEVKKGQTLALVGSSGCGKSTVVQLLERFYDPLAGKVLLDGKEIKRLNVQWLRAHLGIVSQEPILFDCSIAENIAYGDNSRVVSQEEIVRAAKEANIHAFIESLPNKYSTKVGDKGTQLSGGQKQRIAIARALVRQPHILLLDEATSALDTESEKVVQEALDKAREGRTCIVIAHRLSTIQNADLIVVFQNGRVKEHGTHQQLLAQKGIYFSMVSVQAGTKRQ

[3] = target: T2, ATP-dependent translocase ABCB1 (MDR1); assay: in vitro; conditions: dog; remark: listed apart in the source
[4] = target: T2, ATP-dependent translocase ABCB1 (MDR1); assay: in vitro; conditions: dog; remark: listed apart in the source
[5] = target: T1, ATP-dependent translocase ABCB1; assay: TP_TRANSPORTER: ATP hydrolysis in MDR1-expressing Sf9 cells; format: functional

T1 sequence (P08183 whole entry): as above

Structure (SMILES) | Ratio_ATPase activity [1] | Papp B→A ([2]; MDCK-MDR1) | efflux ratio ([3]; MDCK-MDR1) | Papp A→B ([4]; MDCK-MDR1) | Papp B→A ([2]; MDCK-MDR1, Papp) | efflux ratio ([3]; MDCK-MDR1, Ratio_Papp) | Papp A→B ([4]; MDCK-MDR1, Papp) | Activity [5]
CCOc1ccc(-c2nc3cc(-c4nc5cc(N6CCN(C)CC6)ccc5[nH]4)ccc3[nH]2)cc1 | 0.86 | 26 nm/s | 7.75 | 3.35 nm/s | – | – | – | –
COC(=O)C1=C(C)NC(C)=C(C(=O)OCCN(C)Cc2ccccc2)C1c1cccc([N+](=O)[O-])c1 (stereo not drawn) [NICARDIPINE] | 5.39 | – | – | – | 661 nm/s | 1.08 | 614 nm/s | substrate [+]
CN(C)C(=O)Oc1cccc([N+](C)(C)C)c1.[Br-] [NEOSTIGMINE BROMIDE] | 1.06 | 13.7 nm/s | 1.81 | 7.58 nm/s | – | – | – | is not a substrate [-]
CCC(C)n1ncn(-c2ccc(N3CCN(c4ccc(OCC5COC(Cn6cncn6)(c6ccc(Cl)cc6Cl)O5)cc4)CC3)cc2)c1=O (stereo not drawn) [ITRACONAZOLE] | 1.2 | – | – | – | 552 nm/s | 0.97 | 571 nm/s | –
COc1cccc2c1C(=O)c1c(O)c3c(c(O)c1C2=O)C[C@@](O)(C(C)=O)C[C@@H]3O[C@H]1C[C@H](N)[C@H](O)[C@H](C)O1 [DAUNORUBICIN] | 1.69 | – | – | – | 77.7 nm/s | 14.2 | 5.47 nm/s | is not a substrate [-]
COc1cccc2c1C(=O)c1c(O)c3c(c(O)c1C2=O)C[C@@](O)(C(=O)CO)C[C@@H]3O[C@H]1C[C@H](N)[C@H](O)[C@H](C)O1 [DOXORUBICIN] | 0.95 | – | – | – | 9.73 nm/s | 0.67 | 14.5 nm/s | –
COc1cc2nc(N3CCN(C(=O)c4ccco4)CC3)nc(N)c2cc1OC [PRAZOSIN] | 3.4 | – | – | – | 661 nm/s | 4.63 | 143 nm/s | –
CC[C@H]1C(=O)Nc2ccc(F)cc2N1C(=O)OC(C)C [OPAVIRALINE] | 1.02 | – | – | – | 726 nm/s | 0.96 | 758 nm/s | –
Nc1nc(N)c2nc(-c3ccccc3)c(N)nc2n1 | 1.12 | – | – | – | 184 nm/s | 0.99 | 185 nm/s | –
CN(C)CCC(c1ccc(Cl)cc1)c1ccccn1 (racemic) [CHLORPHENIRAMINE] | 0.97 | – | – | – | 642 nm/s | 1.14 | 562 nm/s | –
COC(=O)C1=C(C)NC(C)=C(C(=O)OC)C1c1ccccc1[N+](=O)[O-] [NIFEDIPINE] | – | – | – | – | – | – | – | substrate [+]
CN(C)C(=O)C(CCN1CCC(O)(c2ccc(Cl)cc2)CC1)(c1ccccc1)c1ccccc1 [LOPERAMIDE] | 3.75 | 776 nm/s | 7.77 | 99.8 nm/s | – | – | – | –
COc1cc([C@@H]2c3cc4c(cc3[C@@H](O[C@@H]3O[C@@H]5CO[C@@H](C)O[C@H]5[C@H](O)[C@H]3O)[C@H]3COC(=O)[C@H]23)OCO4)cc(OC)c1O [ETOPOSIDE] | – | – | – | – | 60.6 nm/s | – | 21.4 nm/s | –
NC12CC3CC(CC(C3)C1)C2 [AMANTADINE] | – | – | – | – | 157 nm/s | – | 186 nm/s | –
CN(C)C(=O)Oc1ccc[n+](C)c1 [PYRIDOSTIGMINE] | 0.89 | 12.6 nm/s | 1.24 | 10.2 nm/s | – | – | – | –
COc1cc2c(cc1OC)CN(CCc1ccc(NC(=O)c3cccc4c(=O)c5cccc(OC)c5[nH]c34)cc1)CC2 | – | – | – | – | 18.6 nm/s | – | 2.12 nm/s | –
CC(C)(C)c1ccc(C(O)CCCN2CCC(C(O)(c3ccccc3)c3ccccc3)CC2)cc1 (stereo not drawn) [TERFENADINE] | – | – | – | – | 306 nm/s | – | 65.6 nm/s | –
C[C@]12CC[C@H]3[C@@H](CCC4=CC(=O)CC[C@@]43C)[C@@H]1CC[C@@H]2O [TESTOSTERONE] | 1.32 | 668 nm/s | 0.73 | 916 nm/s | – | – | – | –

Structure (SMILES) | Ratio_ATPase activity [1] | Papp B→A ([2]; MDCK-MDR1) | efflux ratio ([3]; MDCK-MDR1) | Papp A→B ([4]; MDCK-MDR1) | Papp B→A ([2]; MDCK-MDR1, Papp) | efflux ratio ([3]; MDCK-MDR1, Ratio_Papp) | Papp A→B ([4]; MDCK-MDR1, Papp) | Activity [5]
C=C[C@H]1C[N@@]2CC[C@H]1C[C@@H]2[C@@H](O)c1ccnc2ccc(OC)cc12 [QUINIDINE] | 2.54 | – | – | – | 990 nm/s | 27.2 | 36.4 nm/s | –
CC[C@@]1([C@@H]2O[C@@H]([C@H]3O[C@@](O)(CO)[C@H](C)C[C@@H]3C)C[C@@H]2C)CC[C@H]([C@]2(C)CC[C@]3(C[C@H](O)[C@@H](C)[C@@H]([C@@H](C)[C@@H](OC)[C@H](C)C(=O)O)O3)O2)O1 [MONENSIN] | 6.71 | 294 nm/s | 2.88 | 102 nm/s | – | – | – | –
CC(=O)Nc1ccc(OCC(O)CNC(C)C)cc1 (stereo not drawn) [PRACTOLOL] | 1.42 | – | – | – | 16.4 nm/s | 1.32 | 12.4 nm/s | –
CC[C@H]1OC(=O)[C@H](C)[C@@H](O[C@H]2C[C@@](C)(OC)[C@@H](O)[C@H](C)O2)[C@H](C)[C@@H](O[C@@H]2O[C@H](C)C[C@H](N(C)C)[C@H]2O)[C@](C)(O)C[C@@H](C)C(=O)[C@H](C)[C@@H](O)[C@]1(C)O [ERYTHROMYCIN] | – | – | – | – | 13.5 nm/s | – | 0.94 nm/s | –
COc1ccc([C@@H]2Sc3ccccc3N(CCN(C)C)C(=O)[C@@H]2OC(C)=O)cc1 [DILTIAZEM] | 2.64 | – | – | – | 676 nm/s | 1.64 | 413 nm/s | –
COC(=O)[C@@H]1[C@H]2C[C@H]3c4[nH]c5ccccc5c4CCN3C[C@@H]2CC[C@@H]1O [YOHIMBINE] | 1.05 | – | – | – | 501 nm/s | 1.17 | 429 nm/s | –
C[C@@H]1C[C@H]2[C@@H]3CCC4=CC(=O)C=C[C@]4(C)[C@@]3(F)[C@@H](O)C[C@]2(C)[C@@]1(O)C(=O)CO [DEXAMETHASONE] | 1.15 | – | – | – | 537 nm/s | 12.4 | 43.5 nm/s | –
CNS(=O)(=O)Cc1ccc2[nH]cc(CCN(C)C)c2c1 | 1.23 | – | – | – | 13 nm/s | 1.37 | 9.53 nm/s | –
CNC(=C[N+](=O)[O-])NCCSCc1ccc(CN(C)C)o1 [RANITIDINE] | 1.23 | – | – | – | 19.5 nm/s | 1.35 | 14.4 nm/s | –
CC[C@]1(O)C[C@@H]2CN(CCc3c([nH]c4ccccc34)[C@@](C(=O)OC)(c3cc4c(cc3OC)N(C)[C@H]3[C@@](O)(C(=O)OC)[C@H](OC(C)=O)[C@]5(CC)C=CCN6CC[C@]43[C@@H]65)C2)C1 [VINBLASTINE] | 4.31 | – | – | – | 232 nm/s | > 23 | < 10 nm/s | –
O=C1c2c(O)ccc(O)c2C(=O)c2c(NCCNCCO)ccc(NCCNCCO)c21 [MITOXANTRONE] | – | – | – | – | 6.44 nm/s | – | 1.91 nm/s | –
CN/C(=N/CCSCc1nc[nH]c1C)NC#N [CIMETIDINE] | 1.31 | 26.9 nm/s | 2.19 | 12.3 nm/s | – | – | – | –
COC(=O)[C@H]1[C@H]2C[C@@H]3c4[nH]c5cc(OC)ccc5c4CCN3C[C@H]2C[C@@H](OC(=O)c2cc(OC)c(OC)c(OC)c2)[C@@H]1OC [RESERPINE] | 3.85 | – | – | – | 253 nm/s | 3.71 | 68.1 nm/s | –
CC(C)(C)NC(=O)[C@@H]1C[C@@H]2CCCC[C@@H]2CN1C[C@@H](O)[C@H](Cc1ccccc1)NC(=O)[C@H](CC(N)=O)NC(=O)c1ccc2ccccc2n1 | 7.11 | – | – | – | 495 nm/s | 165 | 3.01 nm/s | –
CN(C)CCCN1c2ccccc2Sc2ccc(Cl)cc21 [CHLORPROMAZINE] | 2.42 | – | – | – | 477 nm/s | 1.09 | 438 nm/s | –
CN(Cc1cnc2nc(N)nc(N)c2n1)c1ccc(C(=O)N[C@@H](CCC(=O)O)C(=O)O)cc1 [METHOTREXATE] | 0.91 | – | – | – | 7.06 nm/s | 0.67 | 10.5 nm/s | –
Cc1c(O)cccc1C(=O)N[C@@H](CSc1ccccc1)[C@H](O)CN1C[C@H]2CCCC[C@H]2C[C@H]1C(=O)NC(C)(C)C | 5.21 | – | – | – | 338 nm/s | 8.86 | 38.1 nm/s | –
